# From US20160151305A1, “AGENT OR METHOD FOR TREATEMENT AND/OR PREVENTION OF ACCELERATED ENERGY EXPENDITURE AND/OR DIMINISHED ENERGY EXPENDITURE FUNCTIONALITY” (MATSUTANI CHEMICAL INDUSTRY CO., LTD., priority 2013, published 2016)
# Entries after “also recorded” stand apart in the source; their conditions may differ.
# Legend:
# [1] = Sensory test by continuous administration of D-psicose in humans (interview); format: in vivo; settings: for Changes: Body became easier to move (number of subjects) / Changes: Body felt lighter (number of subjects) / Changes: Body felt warmer (number of subjects) / Changes: Felt better (number of subjects) / Changes: Felt less fatigue (number of subjects) / Changes: No change (number of subjects): 5 healthy humans, once a day for 2 weeks, sample A = D-psicose 1.0 g, B = 2.5 g, C = 5.0 g
# Protocol: The test was conducted for 5 healthy individuals with no smoking habit (average age of 35.0; 3 males and 2 females). Prior to the experiment, the subjects were fully informed of the experiment contents in line with the guidelines of the Declaration of Helsinki, and the experiment was conducted with the informed consent of all subjects. The subjects were each asked to continuously take sample A (D-psicose, 1.0 g), once a day for 2 weeks. The subjects were then interviewed to see if there was any physical changes. After 1 week, the same subjects were continuously given sample B (D-psicose, 2.5 g) for 2 weeks in the same manner as for sample A, and were interviewed again. The same procedure was repeated after 1 week by continuously giving sample C (D-psicose, 5.0 g) to the same subjects, followed by an interview.
# [2] = Metabolism test by single oral administration of D-psicose in rats (indirect calorimetry); format: in vivo, male Sprague-Dawley rats; settings: glucose+fructose+psicose (+Psi group) vs glucose+fructose (-Psi group), mean value every 12 minutes, FIG. 1
# Text: Effects of single oral administration of D-psicose on energy metabolism were examined using male Sprague-Dawley rats (7 weeks of age; purchased from CLEA Japan). The rats were preliminarily maintained for 1 week with a commercially available solid feed (CE-2; CLEA Japan), and were divided into 3 groups so as to be uniform in body weight upon measuring the body weight (each group contained eight rats).
# The rats were individually put in a cage of a respiratory metabolism measurement system for small animals MK-5000 (Muromachi Kikai Co., Ltd.) at 16 o'clock on the day before a calorimetric test. The rats were measured by indirect calorimetry, and acclimated in the dark without food (dark period).
# The rats were placed under a light at 10 o'clock next morning (light period). […] The solution concentrations are different to match total energy amounts. […] For the rest of the experiment, the rats were allowed access to only purified water, and the calorific value was continuously measured until 10 o'clock next day at 23° C. under light.
# Resting energy metabolism (resting energy expenditure; hereinafter, “REE”, kcal/min) was calculated by using the Weir equation, and the result was divided by body weight (hereinafter, “BW”, in kg). The mean of measured values from 12 min to 60 min before the administration was regarded as a value at hour 0, and amounts of change were calculated over time. […]
# [3] = Metabolism test by single administration of D-psicose in humans (indirect calorimetry of breath); format: in vivo
# Protocol: Effects of single administration of D-psicose on energy expenditure, carbohydrate combustion, and lipid combustion were examined in humans. Energy metabolism was calculated by indirect calorimetry from measurements of subjects' breath (oxygen consumption and carbon dioxide discharge). The test was conducted by a single-blinded crossover study of two groups of 6 healthy individuals with no smoking habit (average age of 34.8; 3 males and 3 females; average BMI 21.4 kg/m^2). Prior to the experiment, the subjects were fully informed of the experiment contents in line with the guidelines of the Declaration of Helsinki, and the experiment was conducted with the informed consent of all subjects. The subjects were fasted for 12 hours before starting the test, and were each given a test solution (150 ml) prepared by adding 5 g of D-psicose, or a test solution (150 ml) prepared by adding 10 mg of high sweetener aspartame to provide the same sweetness as control food. The concentration of the test solution was 3.3% for the D-psicose group, and 0.005% for the aspartame group. After giving the test solution, the subjects were given breakfast (hamburg steak with rice; total calorie: 571 kcal; protein 13.4%, lipid 25.3%, carbohydrate 61.3%). After the breakfast, the subjects were rested on the bed for 20 min in the resting supine position to acclimate to the environment, and the breath was measured with an Aero Monitor AE-310S (Minato Medical Science) connected to a breathing hood. The measurement was ended after 4 hours from the breakfast. During the measurement, the oxygen consumption and the carbon dioxide discharge of each subject were recorded every minute, and energy expenditure, carbohydrate combustion, and lipid combustion were calculated from the measured values using the Elwyn energy equation. Throughout the breath measurement, the subjects were rested on the bed in the resting supine position, and were kept awake and fasted. The results were divided by subject ‘ s body weights, and were represented as mean values and standard deviation. […]
# [4] = Human tests, single D-psicose administration with pure carbohydrate food, energy expenditure; format: in vivo; settings: humans
# [5] = Metabolism test by long-term administration of D-psicose in rats (hourly energy expenditure); format: in vivo, male Wistar rats; settings: feed with 50.0 g/kg D-psicose + sucrose vs sucrose group, after 5 to 7 weeks, at hour 11 in the light period and hour 5 and 6 in the dark period, FIG. 2
# Text: Effects of long-term administration of D-psicose on energy metabolism were examined using male Wistar rats (3 weeks of age; purchased from Japan SLC). The rats were preliminarily maintained for 1 week with a commercially available powder feed (product name MF; Oriental Yeast Co., Ltd.), and were divided into 2 groups so as to be uniform in body weight upon measuring the body weight (each group contained eight rats). The two groups are a sucrose administered group, and a sucrose+D-psicose administered group.
# The two groups of rats were allowed free access to experiment feed (Table 2) and water, and maintained under specific conditions (temperature 22±1° C., humidity 58±2%, light period 8:00 to 20:00, dark period 20:00 to 8:00 next morning). The energy metabolism was measured 5 to 7 weeks after the experiment feed was given. […] The rat breath and the room air were collected into a Douglas bag (Fukuda Sangyo) at 1-hour intervals, and the oxygen and carbon dioxide concentrations were measured with a gas concentration analyzers G-102 and LX-710 (Iijima Electronics Corporation) for 24 hours. The amounts of oxygen consumed by the rat, and the amount of generated carbon dioxide were calculated from the oxygen concentration and the carbon dioxide concentration in the breath, and the oxygen concentration and the carbon dioxide concentration in room air. […]
# [6] = 5 g D-psicose immediately before lipid-containing breakfast vs aspartame control, 20 minutes to 4 hours from breakfast, FIG. 3
Structure (SMILES),Changes: Body became easier to move (number of subjects) [1],Changes: Body felt lighter (number of subjects) [1],Changes: Body felt warmer (number of subjects) [1],Changes: Felt better (number of subjects) [1],Changes: Felt less fatigue (number of subjects) [1],Changes: No change (number of subjects) [1],"interview result on repeat test ([1]; humans, sample A (D-psicose 1.0 g) again for 2 weeks, 1 week after testing with sample C)","AREE/BW (change of resting energy expenditure per body weight, water group subtracted) [2]","energy expenditure (REE) per body weight [3, 6]","lipid combustion (FEE) per body weight [3, 6]",energy metabolism result at lower dose ([3]; single D-psicose dose 2.4 g),effect on energy expenditure [4],"physical changes reported in interview ([1]; humans, continuous intake of 2.5 g or more of D-psicose for 2 weeks)",hourly energy expenditure per measured rat weight [5]
"O=C(CO)[C@H](O)[C@H](O)[C@H](O)CO [A, D-psicose]",1,1,1,1,1,4,produced the same result,–,–,–,–,–,–,–
"O=C(CO)[C@H](O)[C@H](O)[C@H](O)CO [B, D-psicose]",2,3,3,2,2,0,–,–,–,–,–,–,–,–
"O=C(CO)[C@H](O)[C@H](O)[C@H](O)CO [C, D-psicose]",3,5,5,2,2,0,–,–,–,–,–,–,–,–
O=C(CO)[C@H](O)[C@H](O)[C@H](O)CO [D-psicose],–,–,–,–,–,–,–,no significant difference,significantly increased,significantly increased,did not show any difference,did not have effect on energy expenditure,The subjects all experienced some changes; also recorded: increase or improve body temperature and other sensations,significantly higher
